The source of these data is patent US10501413B2, “Inhibitors of the Notch transcriptional activation complex and methods for use of the same” (UNIVERSITY OF MIAMI, priority 2015, dated 2019).

The target of one assay is CSL (Homo sapiens, UniProt Q06330). The experiment in a line: Surface plasmon resonance binding to CSL. The following applies: SPR, equilibrium response fitted to 1:1 binding model. On the procedure:
(§1) The inhibitors described herein were subjected to surface plasmon resonance (“SPR”) to determine their binding constants to the NICD and CSL components of the NTC. In particular, the target protein (NICD1) was immobilized on the dextran surface of the SPR sensor chip. Through a microflow system, a solution with the inhibitor was injected over the immobilized protein layer. The inhibitor bound to the immobilized protein, which led to an increase in SPR signal, indicating association of the ligand to the target protein. After 45 seconds, buffer solution was injected on the microfluidics that dissociated the bound complex between the ligand and the inhibitor. As the inhibitor dissociated from the ligand, a decrease in SPR signal was observed. The equilibrium dissociation constant KD was determined by plotting the equilibrium response (Req) as a function of the concentration of the ligand, and fitting the data to a 1:1 binding model. The results are listed in […].

The target in a further assay is T1, NICD1 (Homo sapiens, UniProt P46531).
T1 construct: the intracellular domain of Notch (“NICD”)
T1 sequence (P46531 1754-2555 limits assumed): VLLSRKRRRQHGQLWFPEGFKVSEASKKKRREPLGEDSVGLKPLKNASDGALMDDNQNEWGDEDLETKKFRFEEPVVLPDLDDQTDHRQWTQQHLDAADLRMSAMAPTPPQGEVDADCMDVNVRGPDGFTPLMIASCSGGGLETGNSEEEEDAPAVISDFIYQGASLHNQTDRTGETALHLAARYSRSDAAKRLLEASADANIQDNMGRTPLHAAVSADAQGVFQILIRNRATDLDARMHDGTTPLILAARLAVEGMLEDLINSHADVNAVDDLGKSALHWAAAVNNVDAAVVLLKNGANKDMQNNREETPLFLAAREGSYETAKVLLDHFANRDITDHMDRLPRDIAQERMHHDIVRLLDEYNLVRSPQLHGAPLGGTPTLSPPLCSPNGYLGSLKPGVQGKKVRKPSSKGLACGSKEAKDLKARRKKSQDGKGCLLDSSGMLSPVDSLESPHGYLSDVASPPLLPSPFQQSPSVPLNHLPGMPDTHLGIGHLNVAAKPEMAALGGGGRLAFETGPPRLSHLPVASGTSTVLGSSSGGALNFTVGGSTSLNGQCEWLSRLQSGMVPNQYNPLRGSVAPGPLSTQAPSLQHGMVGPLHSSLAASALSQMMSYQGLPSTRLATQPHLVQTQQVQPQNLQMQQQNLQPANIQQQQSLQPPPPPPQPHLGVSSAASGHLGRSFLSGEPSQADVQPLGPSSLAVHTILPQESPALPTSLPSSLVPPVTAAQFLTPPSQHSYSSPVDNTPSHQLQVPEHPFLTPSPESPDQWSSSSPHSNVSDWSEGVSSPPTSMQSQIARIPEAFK
The experiment in a line: Surface plasmon resonance binding to immobilized NICD. The conditions noted are these: SPR, equilibrium response fitted to 1:1 binding model. As for the experimental part:
as §1
For orientation: Surface plasmon resonance follows binding to a sensor surface in real time, without labels.

The target of assay [1] is T2, Notch transcriptional activation complex (CSL, Notch1, MAML1 on DNA) (Homo sapiens, UniProt P46531+Q06330).
T2 construct: the intracellular domain of Notch (“NICD”); made in house; host or cells: SF21 insect cells (baculovirus)
T2 sequence (P46531 1754-2555 limits assumed): as above
T2 sequence (Q06330 whole entry, the tested form may be a part): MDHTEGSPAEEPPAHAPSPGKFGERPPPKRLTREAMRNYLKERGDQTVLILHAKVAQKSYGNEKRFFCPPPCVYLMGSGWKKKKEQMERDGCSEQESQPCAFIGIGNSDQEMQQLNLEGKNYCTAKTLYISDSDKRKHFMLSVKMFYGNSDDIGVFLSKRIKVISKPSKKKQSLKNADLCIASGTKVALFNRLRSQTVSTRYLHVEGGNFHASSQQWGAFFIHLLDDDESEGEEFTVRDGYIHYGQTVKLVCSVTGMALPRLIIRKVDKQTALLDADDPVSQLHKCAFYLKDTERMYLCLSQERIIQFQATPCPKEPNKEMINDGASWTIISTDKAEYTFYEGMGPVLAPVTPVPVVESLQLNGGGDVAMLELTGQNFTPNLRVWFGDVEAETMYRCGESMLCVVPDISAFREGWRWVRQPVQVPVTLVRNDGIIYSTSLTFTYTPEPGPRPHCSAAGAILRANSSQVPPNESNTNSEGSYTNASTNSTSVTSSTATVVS
The experiment in a line: Notch complex assembly assay (ALPHASCREEN). It is filed as biochemical. From the text:
An in vitro assay was developed to monitor the assembly of the Notch transcriptional complex (“NTC”) on DNA. The NTC, which includes the Notch, Mastermind (“MAML1”), and CSL proteins, binds to a specific DNA sequence in a CSL-dependent manner. For the assay, baculovirus produced CSL, Notch, and MAML1 were mixed together with a biotinylated DNA oligomer containing the CSL target sequence. Assembly of the NTC on DNA was then monitored with the proximity-based ALPHASCREEN (Perkin Elmer) using streptavidin and protein A beads (FIGS. 1A and 1B). A signal results when MAML1 is recruited to CSL bound DNA.
All recombinant proteins were expressed using baculovirus expression vectors in SF21 cells and purified. Unless otherwise stated, all assays contained 125 fmol of double stranded oligonucleotide, CSL, Notch1 and MAML1 proteins. Reactions were carried out in Tris-buffered saline with 0.1% Tween (“TBS-T”) buffer containing 0.2% bovine serum albumin (“BSA”) and 100 ug/mL salmon sperm DNA. Briefly, the Notch complex was assembled on a biotinylated double stranded (“DS”) oligonucleotide harboring one CSL binding site (5′-[…]-3′). Complex assembly was quantitated using ALPHASCREEN technology (Perkin Elmer). Proteins in the complexes were detected using specific antibodies to either MAML1 (Cell signaling, D3K7B), Notch1 (Abcam, 52627) or CSL (anti-His, Abcam 18184). Streptavidin conjugated acceptor beads (Perkin Elmer, 6760002) were used to bind the DS oligonucleotide, and Protein-A conjugated donor beads (Perkin Elmer, 6760137) were used to detect antibody-coated proteins. For screening compounds, Notch transcriptional activation complex (“NTC”) components were added to wells that already contained the inhibitor to be assayed and allowed to incubate for 30 minutes. The ALPHASCREEN plate (Perkin Elmer, 6008350) was then read on an Envision Plate reader (Perkin Elmer) as specified by the manufacturer.
Determination of Equilibrium Dissociation Constants (KD) and Half Maximal Inhibitory Concentrations (IC50)
For orientation: Bead proximity is the source of the signal in Alpha formats.

Assay [2] relates to MAML1 and Notch1 occupancy on HES1 promoter in OE33 and 786-0 cells. The experiment in a line: Chromatin immunoprecipitation (ChIP) on the HES1 locus. It is filed as cell-based, human. The conditions noted are these: 24 hours. On the procedure:
(§2) The effect of inhibitor treatment on the assembly of the NTC in cells was investigated.
Cells (8×10^6 OE33 cells or 10×10^6 786-0 cells) were plated onto a 15 cm tissue culture dish a day prior to treatment. Cells were then treated for 24 hours with (N—[N-(3,5-difluorophenacetyl)-L-alanyl]-S-phenylglycine t-butyl ester (“DAPT”, 5 μM), Inhibitor No. 1-134-83 (25 μM), or DMSO vehicle. Following treatment, cells were cross-linked for 10 minutes with 1% formaldehyde. The reaction was then stopped by adding […] glycine. Cells were collected in SDS lysis buffer (1% SDS, 10 mM EDTA, 50 mM Tris-HCl pH 8.0) and sonicated to yield chromatin fragments of approximately 300 to 800 bp (8 minutes at high level for OE33 cells; 5 minutes at medium level for 786-0 cells in BIORUPTOR UCD-200 sonicator). Lysates were divided into equal parts and immunoprecipitated with either α-Notch1 (A301-894A, Bethyl Laboratories) or α-MAML1 (12166s, Cell Signaling Technology) antibody. Protein:DNA immunoprecipitates were then reverse cross-linked at 65° C. in 200 mM NaCl for 4 hours, followed by incubation with RNase A and proteinase K. DNA was then purified using a PCR purification kit (28104,
Qiagen). Immunoprecipitated DNA was then detected by SYBR green qPCR using HES1 specific oligonucleotide primers (forward: 5′CGTGTCTCCTCCTCCCATT3′; reverse: 5′GGGGGATTCCGCTGTTAT3′).

Assay [3] deals with cancer cell lines (OE33, 786-0 and panel). The experiment in a line: Colony formation assay. It is filed as cell-based, human. The conditions noted are these: 7 days. As for the experimental part:
(§3) The effect of inhibitor treatment on Notch-target gene transcription also was investigated (FIGS. 2C and 2D). […] As proof of specificity, transcription of the housekeeping gene, HPRT, was unaltered in treated cells. To test the effects of Notch inhibition on proliferation, a colony formation assay was performed.
(§4) To extend the analysis of tumor cell growth inhibition, several commonly used cancer cell lines were selected to test for sensitivity to Inhibitor No. 1-134-83 (FIGS. 3A and 3B). […] In this analysis, sensitivity to DAPT is taken to indicate specific inhibition of Notch activity. […] Cells that are refractory to DAPT were equally resistant to Inhibitor No. 1-134-83.
Cells were plated into a 6 well plate at a density of 2000 cells/cm^2. Inhibitor treatment commenced 24 hours post seeding, and the media containing inhibitor was changed every 48 hours thereafter. After 168 hours, cells were fixed with ice cold methanol for 10 minutes, stained for 1 hour with crystal violet, de-stained with water, and allowed to dry.

In assay [4] the test system is esophageal adenocarcinoma PDX tumors. The experiment in a line: Esophageal adenocarcinoma patient-derived xenograft (PDX). The conditions noted are these: NSG mice, two PDX models, daily IP, 1-134-83 15 mg/kg, DAPT 20 mg/kg. It is filed as in vivo, mouse. As for the experimental part: The effect of the inhibitors of the disclosure on the growth of an established tumor also was investigated using two independent esophageal adenocarcinoma patient-derived xenograft (“PDX”) models. Tumors were established in NSG mice to the size of 250 mm^3 prior to the initiation of treatment. Mice were dosed daily via intraperitoneal (“IP”) injection with either Inhibitor No. 1-134-83 (15 mg/kg) or DAPT (20 mg/kg), and compared to DMSO vehicle control. […] Following 24 days of treatment, tumors were harvested and Notch-target gene transcription was evaluated. […] (FIG. 4) Six-week-old NOD-SCID gamma (“NSG”) mice were purchased from Jackson Laboratories and CD-1 Nude mice were purchased from Charles River Laboratories. For the cell line based xenografts assay, 5×10^6 OE19 cells in 200 μl serum-free culture medium were injected subcutaneously per mouse. The mice in the treatment group were injected with 15 mg/kg of Inhibitor No. 1-134-83 daily, and the mice in the control group were injected with the same volume of vehicle (DMSO). Subcutaneous tumor growth was measured once every 4 days using calipers along with body weight. The experiment was discontinued on day 28. PDX cancer models were established, as described in Zhang et al, Establishment of Patient-Derived Xenograft (PDX) Models of Human Breast Cancer, Current Protocols in Mouse Biology, 3:21-29 (2013), in NSG mice. Briefly, 10 mm^3 pieces of primary EAC29 PDX tumor were transplanted subcutaneously into the flanks of NSG mice using a 13G telescopic needle. When the tumors reached 200 mm^3, the mice were split into two uniform groups for treatment. Compound 1-134-83 (15 mg/kg) and vehicle were administered daily by inraperitoneal (“IP”) injection for 24 days. Tumor growth was monitored every 4 days and tumor volume was measured by the formula: Volume=(S×S×L)/2, where S and L are the short and long dimensions. The xenograft tumors were harvested, weighed and samples were subjected to histological examination and by qPCR.
On the technique in general: A xenograft is tissue or cells of one species grown in another, often human tumour cells in immunodeficient mice.

Assay [5] relates to NICD in OE33 and 786-0 cells. The experiment in a line: Western analysis of NICD levels. It is filed as cell-based, human. The following applies: OE33 and 786-0 cell lysates. On the procedure:
as §2
Protein analysis was carried out using conventional SDS-PAGE and transfer techniques. Blots were probed with the indicated antibody (“Ab”), using standard conditions, and detected using enhanced chemiluminescence (“ECL”). The following Ab were used: anti-Notch1 (ab52627, abcam), anti-Notch1^val1744 (4147S, Cell Signaling Technology) and anti-GAPDH (ab9483, Abcam).

Assay [6] deals with Notch target gene transcription. The experiment in a line: RT-qPCR of Notch target genes in cancer cell lines. In kind it is cell-based, human. As for the experimental part: as §3, §4
RT-PCR analysis was performed using TaqMan probes according to manufacturer's instructions. In particular, 80 ng of RNA equivalent was used per reaction. Gene expression was normalized to the TATA-binding protein (“TBP”) gene. As a control, hypoxanthine phosphoribosyltransferase 1 (“HPRT”) gene expression was also monitored.

Chain of CSL (Q06330 whole entry): as the sequence (Q06330 whole entry, the tested form may be a part) above

For `COc1cc(/C=C2\SC(=S)NC2=O)ccc1OCC(=O)O` [1-134-02], the Kd on CSL is 3.6 ± 0.9 µM; at NICD1 it was 2.9 ± 0.6 µM. This compound also came in with an IC50 in assay [1] of 0.5 µM.
As for `C=CCc1cc(/C=C2\SC(=S)NC2=O)cc(OC)c1OCC(=O)O` [1-134], the Kd at CSL was determined as 15 ± 3 µM; on NICD1, 17 ± 5 µM. This compound also displayed an IC50 in assay [1] of 6 µM.
Consider `C[C@H](NC(=O)Cc1cc(F)cc(F)c1)C(=O)N[C@H](C(=O)OC(C)(C)C)c1ccccc1` [DAPT, N—[N-(3,5-difluorophenacetyl)-L-alanyl]-S-phenylglycine t-butyl ester, reference compound], for which, in assay [2], the “occupancy of MAML1 on the HES1 promoter” value is listed as “decreased”. Further, the “occupancy of NOTCH1 on the HES1 promoter” value in assay [2] is “decreased”. In addition, the colony formation entry in assay [3] (786-0 and OE33 cells) is “inhibited the cell colony forming ability of cells”; in assay [3] (sensitive (Notch dependent) cell lines) it was “decrease in colony formation”. Also, in assay [4], the “growth of established tumor” value is given as “stunted growth to a similar level achieved with DAPT treatment”. Also, in assay [5], the “levels of NICD in cells” value is recorded as “decrease in the NICD pool”. For the same compound, the “Notch target gene transcription” value in assay [6] (OE33 and 786-0 cells, qPCR) is listed as “significant decrease”; in assay [6] (insensitive cancer cell lines of the panel, 48 hrs), “do not show a statistically significant reduction”; in assay [6] (sensitive cancer cell lines of the panel, 48 hrs, DAPT 10, 1-134-83 15 and 25 μM) it was “significantly reduced”. Further, in assay [6] (OE33 and 786-0 cells, qPCR), the “transcription of control gene HPRT” value was “not affected”.
In the case of `O=C(O)COc1ccccc1/C=C1\SC(=S)NC1=O` [NADi-090], the Kd on CSL came out at 3.4 ± 0.7 µM; on NICD1, 25 ± 4 µM. The compound further returned an IC50 in assay [1] of 0.07 µM.
On the same counts, the results for `COc1cccc(/C=C2\SC(=S)N(CC(=O)N(C)C)C2=O)c1O` [NADi-203, (Z)-2-(5-(2-Hydroxy-3-methoxybenzylidene)-4-oxo-2-thioxothiazolidin-3-yl)-N,N-dimethylacetamide] are 6.4 ± 0.7 µM, 5.7 ± 0.9 µM and 0.5 µM.
On the same counts, the results for `CN(C)C(=O)CN1C(=O)/C(=C/c2cc(F)ccc2O)SC1=S` [NADi-239, (Z)-2-(5-(5-Fluoro-2-hydroxybenzylidene)-4-oxo-2-thioxothiazolidin-3-yl)-N,N-dimethylacetamide] are 13 ± 2 µM, 3.7 ± 0.8 µM and 0.5 µM.

As a reminder, the Kd is the equilibrium constant for the complex coming apart. A lower Kd goes with a tighter complex. What is called IC50 is the midpoint of a concentration-inhibition curve. A high value points to a need for much substance.
